Read-outs that look alike come from different tables or passages of the source. A value given as a limit tells only on which side of the number the result lay.

One assay concerns the target HDAC8 (Homo sapiens (Human), UniProt Q9BY41). Nature of the assay: HDAC in vitro enzymatic assay (fluorescence). The settings on record: read-out: IC50 HDAC8; full HDAC panel; top concentration 10 μM.
The next assay has as its target HDAC3 (Homo sapiens (Human), UniProt O15379). As to the kind of experiment: HDAC in vitro enzymatic assay (fluorescence). The settings on record: read-out: IC50 HDAC3; full HDAC panel; top concentration 10 μM.
In the next assay the target is HDAC9 (Homo sapiens (Human), UniProt Q9UKV0). Nature of the assay: HDAC in vitro enzymatic assay (full HDAC panel). The settings on record: read-out: IC50 HDAC9, top concentration 10 μM.
The target in another assay is HDAC6 (Homo sapiens (Human), UniProt Q9UBN7). As to the kind of experiment: HDAC in vitro enzymatic assay (fluorescence). It counts as biochemical. A digest of the protocol:
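Recombinant HDAC with fluorogenic substrate and BSA in assay buffer; developer added after reaction, fluorescence read at ex 360/em 460 nm. Compound dilution series topped at 2 μM for HDAC6 (200 μM others); in full-panel testing top concentration 10 μM.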

For another assay, the target named is HDAC4 (Homo sapiens (Human), UniProt P56524). Nature of the assay: HDAC in vitro enzymatic assay (full HDAC panel). Particulars: read-out: IC50 HDAC4, top concentration 10 μM.
Sequence of HDAC4 (P56524 whole entry): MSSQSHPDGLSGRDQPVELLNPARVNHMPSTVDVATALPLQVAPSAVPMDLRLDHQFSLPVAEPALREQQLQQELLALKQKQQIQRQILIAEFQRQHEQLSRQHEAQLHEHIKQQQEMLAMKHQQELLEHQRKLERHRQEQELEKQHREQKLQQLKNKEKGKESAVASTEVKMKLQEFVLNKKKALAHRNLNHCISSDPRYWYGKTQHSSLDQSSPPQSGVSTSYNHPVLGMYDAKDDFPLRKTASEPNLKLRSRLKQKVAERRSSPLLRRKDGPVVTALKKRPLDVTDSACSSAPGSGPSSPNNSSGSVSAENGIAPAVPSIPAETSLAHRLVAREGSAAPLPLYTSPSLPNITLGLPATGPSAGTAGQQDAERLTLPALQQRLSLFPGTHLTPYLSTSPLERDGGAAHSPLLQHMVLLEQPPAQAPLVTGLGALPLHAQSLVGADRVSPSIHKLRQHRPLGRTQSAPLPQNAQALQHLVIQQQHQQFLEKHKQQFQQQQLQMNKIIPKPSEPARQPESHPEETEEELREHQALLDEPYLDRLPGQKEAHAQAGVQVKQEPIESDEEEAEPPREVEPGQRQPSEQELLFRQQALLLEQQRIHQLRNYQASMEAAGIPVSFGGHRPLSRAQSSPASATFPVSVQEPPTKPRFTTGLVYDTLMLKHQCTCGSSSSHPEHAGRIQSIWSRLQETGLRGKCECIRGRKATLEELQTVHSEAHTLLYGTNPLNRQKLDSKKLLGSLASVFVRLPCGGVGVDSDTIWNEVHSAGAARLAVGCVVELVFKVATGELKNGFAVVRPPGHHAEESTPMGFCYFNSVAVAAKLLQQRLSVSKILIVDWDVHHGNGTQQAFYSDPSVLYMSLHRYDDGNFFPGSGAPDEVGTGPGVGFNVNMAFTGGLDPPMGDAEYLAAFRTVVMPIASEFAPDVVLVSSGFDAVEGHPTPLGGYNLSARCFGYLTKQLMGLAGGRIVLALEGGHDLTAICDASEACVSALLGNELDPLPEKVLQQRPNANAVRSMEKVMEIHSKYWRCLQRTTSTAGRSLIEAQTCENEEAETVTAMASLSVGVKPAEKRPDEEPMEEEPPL
Another assay has as its target HDAC7 (Homo sapiens (Human), UniProt Q8WUI4). As to the kind of experiment: HDAC in vitro enzymatic assay (full HDAC panel). The settings on record: read-out: IC50 HDAC7, top concentration 10 μM.
Another assay addresses HDAC1 (Homo sapiens (Human), UniProt Q13547). Nature of the assay: HDAC in vitro enzymatic assay (fluorescence). The settings on record: read-out: IC50 HDAC 1; full HDAC panel; top concentration 10 μM.
The target in another assay is HDAC2 (Homo sapiens (Human), UniProt Q92769). Nature of the assay: HDAC in vitro enzymatic assay (fluorescence). The settings on record: read-out: IC50 HDAC2; full HDAC panel; top concentration 10 μM.
Sequence of HDAC2 (Q92769 whole entry): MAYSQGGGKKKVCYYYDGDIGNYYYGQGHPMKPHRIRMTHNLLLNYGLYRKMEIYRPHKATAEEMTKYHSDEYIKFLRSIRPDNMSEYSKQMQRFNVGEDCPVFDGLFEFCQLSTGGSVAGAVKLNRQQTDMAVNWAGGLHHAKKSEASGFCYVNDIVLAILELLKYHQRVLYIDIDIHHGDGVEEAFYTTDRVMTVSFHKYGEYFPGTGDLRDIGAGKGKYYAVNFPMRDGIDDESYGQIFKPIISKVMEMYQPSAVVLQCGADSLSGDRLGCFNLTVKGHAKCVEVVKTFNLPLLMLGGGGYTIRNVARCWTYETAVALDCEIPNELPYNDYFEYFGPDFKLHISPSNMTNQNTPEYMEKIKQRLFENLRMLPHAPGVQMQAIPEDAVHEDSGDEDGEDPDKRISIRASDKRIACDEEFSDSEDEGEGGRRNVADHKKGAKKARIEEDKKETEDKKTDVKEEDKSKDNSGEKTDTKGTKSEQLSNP
The next assay addresses HDAC11 (Homo sapiens (Human), UniProt Q96DB2). As to the kind of experiment: HDAC in vitro enzymatic assay (full HDAC panel). Particulars: read-out: IC50 HDAC11, top concentration 10 μM.
In a further assay the target is HDAC10 (Homo sapiens (Human), UniProt Q969S8). As to the kind of experiment: HDAC in vitro enzymatic assay (full HDAC panel). Particulars: read-out: IC50 HDAC10, top concentration 10 μM.
Sequence of HDAC10 (Q969S8 whole entry): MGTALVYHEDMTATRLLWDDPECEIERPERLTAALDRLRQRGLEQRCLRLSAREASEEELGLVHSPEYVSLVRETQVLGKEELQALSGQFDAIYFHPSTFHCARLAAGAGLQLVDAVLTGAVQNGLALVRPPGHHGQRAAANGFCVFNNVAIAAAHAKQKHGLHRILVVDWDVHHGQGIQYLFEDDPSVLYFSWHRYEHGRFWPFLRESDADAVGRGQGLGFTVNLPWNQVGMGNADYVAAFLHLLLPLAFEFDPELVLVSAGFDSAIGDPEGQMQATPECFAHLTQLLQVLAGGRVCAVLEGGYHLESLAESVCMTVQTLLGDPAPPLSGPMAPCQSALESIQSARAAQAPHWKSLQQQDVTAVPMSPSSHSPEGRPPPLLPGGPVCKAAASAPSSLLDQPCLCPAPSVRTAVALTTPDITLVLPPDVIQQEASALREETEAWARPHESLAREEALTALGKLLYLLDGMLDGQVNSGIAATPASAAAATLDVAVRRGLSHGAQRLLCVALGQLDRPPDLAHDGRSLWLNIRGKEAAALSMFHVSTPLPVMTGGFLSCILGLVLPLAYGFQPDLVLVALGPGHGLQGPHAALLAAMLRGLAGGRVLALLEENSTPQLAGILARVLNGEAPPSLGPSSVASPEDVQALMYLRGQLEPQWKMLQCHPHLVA
For a further assay, the target named is HDAC5 (Homo sapiens (Human), UniProt Q9UQL6). As to the kind of experiment: HDAC in vitro enzymatic assay (full HDAC panel). Particulars: read-out: IC50 HDAC5, top concentration 10 μM.
[1] abbreviates: full HDAC panel, top concentration 10 μM, read-out: IC50 HDAC6.
[2] abbreviates: top concentration 2 μM, read-out: IC50 values for inhibition of HDAC6.

Sequence of HDAC11 (Q96DB2 whole entry): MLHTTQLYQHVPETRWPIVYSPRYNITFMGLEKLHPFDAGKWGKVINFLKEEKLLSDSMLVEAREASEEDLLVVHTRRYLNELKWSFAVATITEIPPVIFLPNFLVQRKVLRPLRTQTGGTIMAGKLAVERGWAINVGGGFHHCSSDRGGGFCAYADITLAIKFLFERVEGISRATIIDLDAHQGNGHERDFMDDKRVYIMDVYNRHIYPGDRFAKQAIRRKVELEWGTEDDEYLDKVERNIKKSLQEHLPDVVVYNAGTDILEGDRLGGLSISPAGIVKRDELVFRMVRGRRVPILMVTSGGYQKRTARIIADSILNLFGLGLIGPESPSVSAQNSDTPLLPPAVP
Sequence of HDAC1 (Q13547 whole entry): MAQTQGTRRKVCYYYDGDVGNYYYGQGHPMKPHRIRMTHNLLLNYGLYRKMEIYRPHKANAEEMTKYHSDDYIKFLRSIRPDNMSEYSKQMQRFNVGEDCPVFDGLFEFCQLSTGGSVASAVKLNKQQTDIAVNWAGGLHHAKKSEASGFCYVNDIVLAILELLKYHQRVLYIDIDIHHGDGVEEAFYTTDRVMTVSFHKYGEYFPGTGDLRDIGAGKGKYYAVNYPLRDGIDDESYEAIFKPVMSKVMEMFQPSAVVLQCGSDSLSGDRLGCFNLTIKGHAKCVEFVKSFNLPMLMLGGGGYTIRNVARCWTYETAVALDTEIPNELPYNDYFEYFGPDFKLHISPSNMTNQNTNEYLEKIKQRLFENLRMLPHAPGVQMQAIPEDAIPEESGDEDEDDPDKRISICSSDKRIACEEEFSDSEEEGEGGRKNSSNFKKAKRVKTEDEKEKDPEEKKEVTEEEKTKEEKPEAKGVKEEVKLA
Sequence of HDAC8 (Q9BY41 whole entry): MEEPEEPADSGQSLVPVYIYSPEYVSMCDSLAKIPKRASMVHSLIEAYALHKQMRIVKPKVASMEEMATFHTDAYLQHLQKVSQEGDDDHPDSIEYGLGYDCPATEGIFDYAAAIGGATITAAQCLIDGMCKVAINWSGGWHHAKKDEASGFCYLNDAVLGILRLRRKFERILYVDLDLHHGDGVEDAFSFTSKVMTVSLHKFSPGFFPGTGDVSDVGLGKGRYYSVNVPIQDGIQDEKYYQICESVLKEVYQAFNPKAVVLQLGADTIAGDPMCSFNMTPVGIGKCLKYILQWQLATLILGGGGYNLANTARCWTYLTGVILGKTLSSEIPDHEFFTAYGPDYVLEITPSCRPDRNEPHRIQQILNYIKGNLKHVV
Sequence of HDAC7 (Q8WUI4 whole entry): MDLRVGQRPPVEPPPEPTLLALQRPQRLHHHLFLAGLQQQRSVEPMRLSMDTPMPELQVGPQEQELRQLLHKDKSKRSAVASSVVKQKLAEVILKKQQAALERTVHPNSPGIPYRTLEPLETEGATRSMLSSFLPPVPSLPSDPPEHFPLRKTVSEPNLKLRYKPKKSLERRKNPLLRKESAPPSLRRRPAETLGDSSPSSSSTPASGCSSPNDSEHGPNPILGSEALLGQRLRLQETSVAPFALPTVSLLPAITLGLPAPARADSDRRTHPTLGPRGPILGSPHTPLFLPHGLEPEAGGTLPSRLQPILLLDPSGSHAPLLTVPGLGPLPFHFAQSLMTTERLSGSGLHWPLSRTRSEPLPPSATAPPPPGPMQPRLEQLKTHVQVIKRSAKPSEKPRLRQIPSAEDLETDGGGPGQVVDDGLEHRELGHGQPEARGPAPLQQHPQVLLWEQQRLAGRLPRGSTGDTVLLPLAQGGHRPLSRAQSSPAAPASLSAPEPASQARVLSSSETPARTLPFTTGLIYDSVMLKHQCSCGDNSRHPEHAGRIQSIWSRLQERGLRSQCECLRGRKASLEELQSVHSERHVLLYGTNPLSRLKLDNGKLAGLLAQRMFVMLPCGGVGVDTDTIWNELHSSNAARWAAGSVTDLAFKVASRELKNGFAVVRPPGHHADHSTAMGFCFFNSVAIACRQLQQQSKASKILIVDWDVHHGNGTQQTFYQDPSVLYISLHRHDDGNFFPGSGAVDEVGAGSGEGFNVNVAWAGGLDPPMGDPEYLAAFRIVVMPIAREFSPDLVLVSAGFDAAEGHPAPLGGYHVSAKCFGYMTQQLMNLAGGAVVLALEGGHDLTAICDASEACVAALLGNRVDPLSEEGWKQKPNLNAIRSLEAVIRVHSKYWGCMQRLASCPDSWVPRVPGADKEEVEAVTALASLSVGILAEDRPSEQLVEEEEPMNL
Sequence of HDAC3 (O15379 whole entry): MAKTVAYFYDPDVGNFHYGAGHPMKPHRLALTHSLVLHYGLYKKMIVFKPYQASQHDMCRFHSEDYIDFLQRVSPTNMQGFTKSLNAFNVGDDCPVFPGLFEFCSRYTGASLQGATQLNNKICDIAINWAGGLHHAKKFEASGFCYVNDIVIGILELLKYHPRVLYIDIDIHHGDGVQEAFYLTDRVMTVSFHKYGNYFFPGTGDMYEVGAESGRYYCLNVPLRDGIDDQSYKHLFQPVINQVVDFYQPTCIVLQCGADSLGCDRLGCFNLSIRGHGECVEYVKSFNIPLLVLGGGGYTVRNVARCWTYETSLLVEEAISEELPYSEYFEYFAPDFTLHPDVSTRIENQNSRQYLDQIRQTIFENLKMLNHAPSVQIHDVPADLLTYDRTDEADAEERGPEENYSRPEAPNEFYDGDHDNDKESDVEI
Sequence of HDAC3 (Q9Y618 395-489 partner): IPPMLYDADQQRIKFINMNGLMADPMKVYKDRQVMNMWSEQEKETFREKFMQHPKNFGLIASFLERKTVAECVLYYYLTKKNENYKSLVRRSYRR

As to `Cc1cc(O)cc(C)c1-c1nc2ccc(C(=O)NO)cc2[nH]1` [Example 15, N-hydroxy-2-(4-hydroxy-2,6-dimethylphenyl)-1H-benzimidazole-6-carboxamide], the IC50 on HDAC8 was greater than 10 µM; at HDAC3 it was 8.2 µM; on HDAC9 it was 6.9 µM; on HDAC6 (setting [1]) it was 0.069 µM; on HDAC6 (setting [2]) it was 0.069 µM; on HDAC4 it was greater than 10 µM. The IC50 is 3 µM on HDAC7; greater than 10 µM at HDAC1; greater than 10 µM on HDAC2; greater than 10 µM on HDAC11; greater than 10 µM at HDAC10; greater than 10 µM on HDAC5.

With `O=C(NO)c1ccc2nc(-c3ccccc3C(F)(F)F)[nH]c2c1` [Example 18, N-hydroxy-2-[2-(trifluoromethyl)phenyl]-1H-benzimidazole-6-carboxamide], the IC50 on HDAC8 is greater than 10 µM; at HDAC3, 3 µM; at HDAC9 it was greater than 10 µM; on HDAC6 (setting [1]), 0.077 µM; at HDAC6 (setting [2]), 0.077 µM; on HDAC4 it was greater than 10 µM. Besides, the IC50 on HDAC7 is 9.2 µM; on HDAC1 it was greater than 10 µM; on HDAC2, greater than 10 µM; at HDAC11 it was greater than 10 µM; at HDAC10, 8.6 µM; on HDAC5, greater than 10 µM.
